Columns and labels:
[1] = test system: human-derived tracheal/bronchial epithelial cells (EpiAirway™ Tissue model system); experiment: FITC-Dextran (FD3) permeation assay, EpiAirway tissue model; assay type: cell-based; settings: 25 μM peptide, 1 h at 37° C.
Protocol: A FITC labeled dextran with a molecular weight 3000 (FD3) was used to assess the efficacy of individual TJMP on epithelial cell monolayer permeation. The tissue insert plates were transferred to a 96-well receiver plate containing 200 μl of DPBS++ as basal media. The apical surface of each tissue culture insert was incubated with a 20 μl sample of a single test formulation (refer to Table 4 in Example 2 for details of test formulations) for one hour at 37° C. in the dark on a shaker (˜100 rpm). Following the 1 hour incubation period, underlying basal media samples were taken from each tissue culture insert and temporarily stored in the dark at room temperature until FD3 levels were quantified by fluorescence spectroscopy. For FD3 measurements, a 150 μl of basal media sample was transferred to a black, clear bottom 96-well plate. Fluorescence emission at 528/20 following excitation at 485/20 were measured using a FLx800 fluorescence plate reader from Biotek Instruments.
Permeation was calculated as: [formula] [formula] Formula terms for permeation defined: […]
(§1) Of the total 300 μl volume for each test formulation, only a 20 μl sample was applied to the human-derived tracheal/bronchial epithelial cells (EpiAirway™ Tissue model system) in order to assess the effect each test formulation had on TER, LDH and sample permeation.

[2] = Chemical stability of PN159 in solution (stability indicating HPLC); assay type: physicochemical; settings: for loss of native PN159: 25° C.
Protocol: The chemical stability of the PN159 was determined under therapeutically relevant storage conditions. A stability indicating HPLC method was employed. Solutions (50 mM) were stored at various pH (4.0, 7.3, and 9.0) and temperature (5° C., 25° C., 35° C., 40° C., and 50° C.) conditions. Samples at pH 4 contained 10 mM citrate buffer. Samples at pH 7.3 and 9.0 contained 10 mM phosphate buffer. […] For example, at 5° C. and pH 4.0 or pH 7.3, there was essentially 100% recovery of PN159 for six month storage. […] The pH range of 4.0 to 7.3 and the temperature range of refrigerated to ambient are most relevant for intranasal formulations.

[3] = Intranasal PYY(3-36) pharmacokinetics in rabbits with various TJMPs (Example 10); assay type: in vivo, New Zealand White rabbits; settings: rabbit
Text: The tubes were chilled until […].

[4] = test system: human-derived tracheal/bronchial epithelial cells (EpiAirway™ Tissue model system); experiment: Cytotoxicity (LDH assay), EpiAirway tissue model; assay type: cell-based
Protocol: The amount of cell death was assayed by measuring the release of lactate dehydrogenase (LDH) from the cells into the apical medium using a CytoTox 96 Cytotoxicity Assay Kit (Promega Corp., Madison, Wis.). One percent Octylphenolpoly (ethyleneglycolether)×(Triton X-100™) diluted in phosphate buffered saline (PBS) causes 100% lysis in cultured cells and served herein as a positive control for the LDH assay. Following the one hour incubation period with a test formulation (refer to Table 4 in Example 2 for details of test formulations), the total liquid volume of each insert was brought to a final volume of 200 μl with culture medium. The apical medium was then mixed by pipetting four times with a multichannel pipette set to a 100 μl volume. After mixing, a 100 μl sample from the apical side of each insert was transferred to a new 96-well plate. The apical media samples were sealed with a plate sealer and stored at room temperature for same day analysis or stored overnight at 4° C. for analysis the next day. To measure LDH levels, 5 μl of the 100 μl apical media sample was diluted in 45 μl DPBS in a new 96-well plate. Fresh, cell-free culture medium will be used as a blank. Fifty microliters of substrate solution was added to each well and incubated for 30 minutes at room temperature away from direct light. Following the 30 minute incubation, 50 μl of stop solution was added to each well. Optical density (OD) was measured at 490 nm with a uQuant absorbance plate reader from Biotek Instruments. The measurement of LDH release into the apical media indicates relative cytotoxicity of the samples. Percent cytotoxicity for each test formulation was calculated by subtracting the measured absorbance of the PBS control (basal level of LDH release) from the measured absorbance of the individual test formulation and then dividing that value by the measured absorbance for the 1% Triton X-100™ positive control, multiplied by 100.
The formula used to calculate percent cytotoxicity is as follows: [formula] Osmolality
as §1

[5] = test system: in vitro epithelial tissue model; experiment: Cell viability (MTT assay), in vitro epithelial tissue model; settings: galantamine lactate 40 mg/ml and PN159 at all concentrations tested (25, 50, 100 μM)
[6] = test system: human-derived tracheal/bronchial epithelial cells (EpiAirway™ Tissue model system); experiment: Transepithelial electrical resistance (TER), EpiAirway tissue model; assay type: cell-based
Protocol: EpiAirway™ culture membranes were received the day before the experiments started. They are shipped in phenol red-free and hydrocortisone-free Dulbecco's Modified Eagle's Medium (DMEM). The cells are ciliated and psudostratefied, grown to confluency on Millipore Multiscreen Caco-2 96-well assay system comprised of a polycarbonate filter system. Upon receipt, the insert system will be stored unopened at 4° C. and/or cultured in 250 μl basal media per well (phenol red-free and hydrocortisone-free Dulbecco's Modified Eagle's Medium (DMEM)) at 37° C./5% CO2 for 24 hours before use.
TER measurements were taken using the REMS Autosampler (World Precision Instruments, Sarasota, Fla.) with the electrode leads. The electrodes and a tissue culture blank insert will be equilibrated for at least 20 minutes in MatTek Air-100™ medium with the power off prior to checking calibration. The background resistance of the insert system has been established by multiple measurements of a blank insert plate and the same value was used for each test on the platform. Time zero TER (TER0) was measured before incubation of the inserts with the test formulation. The top electrode will be as adjusted so that it is close to, but not making contact with, the top surface of the insert membrane. Background resistance of the blank insert should be about 5-20 ohms. For each TER determination, 100 μl of MatTek Air-100™ medium was added to the insert and 250 μl in the basal well followed by placement in the Endohm chamber. All TER values are reported as a function of the surface area of the tissue. Resistance was expressed as both Ohms*cm^2 and percent original TER value.
TER values were calculated as: [formula] [formula] Formula terms for TER calculation defined: […]
A decrease in TER value relative to the control value indicates a decrease in cell membrane resistance and an increase in mucosal epithelial cell permeability.
as §1

[7] = PYY(3-36) in plasma, 205 μg/kg intranasal with the named TJMP (concentration per Table 11, 50-1000 μM) or PBS, mean

## CC(C)C[C@H](NC(=O)[C@H](C)NC(=O)[C@H](CCCCN)NC(=O)[C@H](CC(C)C)NC(=O)[C@H](C)NC(=O)[C@H](CC(C)C)NC(=O)[C@H](CCCCN)NC(=O)[C@H](CC(C)C)NC(=O)[C@H](C)NC(=O)[C@H](CC(C)C)NC(=O)[C@@H](N)CCCCN)C(=O)N[C@@H](CCCCN)C(=O)N[C@@H](C)C(=O)N[C@@H](C)C(=O)N[C@@H](CC(C)C)C(=O)N[C@@H](CCCCN)C(=O)N[C@@H](CC(C)C)C(=O)N[C@@H](C)C(N)=O [PN159]
[1]
  % FD3 Permeation: 8%
[2]; pH 4, after six months
  loss of native PN159: 7%
[2]; pH 7, after six months
  loss of native PN159: 26%
[2]; pH 9 and/or elevated temperature, e.g., 40 to 50° C.
  chemical stability of PN159: rapid deterioration
[3]; PYY(3-36) 205 μg/kg intranasal, TJMP concentration per Table 11: PN159 50 μM, PN161, PN202 100 μM, PN27 250 μM, PN58, PN73, PN228 500 μM, PN183, PN556 1000 μM
  In Vivo Tier Ranking: I
[3]; [7]
  AUCinf: 1.55e+06 pg·min/mL
  AUClast: 1.52e+06 pg·min/mL
  Cmax: 30.2 ng/mL
  T1/2: 30.2 min
  Tmax: 17.0a min
[4]; 25 μM peptide, 1 h incubation, % of 1% Triton X-100 control
  LDH: 31%
[4]; PN159 (25, 50, 100 μM) with galantamine lactate 40 mg/ml
  cytotoxicity as measured by LDH: low
[5]
  Cell viability (MTT): > 80%
[6]; 25 μM peptide, pH 7, 20 μl applied
  % T0 TER: 7%
[6]; 25, 50, 100 μM PN159 with 40 mg/ml galantamine lactate, pH 5.0
  TER in the presence of galantamine: reduced TER
